Measured values: patent EP0252380B1, “Antibiotic LL-E19020 alpha and beta” (AMERICAN CYANAMID COMPANY, priority 1986, dated 1988)
≈ marks a conversion by molar mass, not a printed value. Marks after values point to notes of the source that are not given here.

How the values were obtained:
[1] = test system: Pasteurella multocida 31081B; assay: Pasteurella disk test (primary in vitro disk diffusion test); conditions: disks soaked in 2.5 mg/ml solution; strain 31081B
Pseudomonas aeruginosa = assay: In vitro antibacterial activity, standard agar dilution method (Table II); format: cell-based; conditions: strain 12-4-4
Clostridium perfringens = format: cell-based; conditions: strain ATCC 13124
[2] = Weight gain and feed efficiency of broiler chicks (Example 6, Table IX); format: in vivo, Peterson X Arbor Acres chicks; conditions: for Wg Gains And Feed Efficiency % Improvement Over Controls FEED/GAIN: control 1.41
Escherichia coli = assay: In vitro antibacterial activity, standard agar dilution method (Table II); format: cell-based; conditions: strain 311
Pasteurella haemolytica = assay: Minimum inhibitory concentration by agar dilution (Table VI); format: cell-based; conditions: 3 strains tested
[3] = test system: Bordetella bronchiseptica; assay: as above; format: cell-based; conditions: 4 strains tested
Enterococcus = assay: In vitro antibacterial activity, standard agar dilution method (Table II); format: cell-based
[4] = test system: Mycoplasma gallisepticum "R"; assay: Minimum inhibitory concentration assay for Mycoplasma gallisepticum (microdilution, Table VII); conditions: microdilution; "R" strain
Streptococcus agalactiae = assay: Minimum inhibitory concentration by agar dilution (Table VI); format: cell-based; conditions: 4 strains tested
Streptococcus uberis = assay: as above; format: cell-based; conditions: 1 strain tested
[5] = Growth of chickens and efficiency of feed utilization (Example 5, Table VIII); format: in vivo, Peterson X Arbor Acres chicks; conditions: for Feed/Gain 0-1 Wk: control 1.21; for Feed/Gain 0-2 Wk: control 1.33; for Feed/Gain 0-3 Wk: control 1.43
Description: In this test one day old Peterson X Arbor Acres chicks are sorted into equal weight groups of 5 males and 5 females per cage. Cages are randomized to treatment groups with six replicates per treatment. Each compound is tested at 50 and 100 ppm in the diet and evaluated against chicks receiving a non-medicated diet.
The chicks are weighed at the start of the test and at 1 week intervals thereafter to the conclusion of said test. The chicks are given free access to feed and water during the entire test period. The feed is weighed when provided to the chicks and excess feed collected and weighed when the cages are cleaned.
The poultry diet employed in the test is as follows: Vitamin-amino acid premix 0.5% Trace minerals 0.1% Sodium chloride 0.3% Dicalcium phosphate 1.2% Ground limestone 0.5% Stabilized fat 4.0% Dehydrated alfalfa, 17% protein 2.0% Corn gluten meal, 41% protein 5.0% Menhaden fish meal, 60% protein 5.0% Soybean oil meal, 44% protein 30.0% Ground yellow corn, fine to 100.0%
The vitamin-amino acid premix in the above feed composition is prepared from the following formulation. The expressions of quantity relate to units per kilogram of the finished feed compositions. Butylated hydroxy toluene 125.0 mg d1-Methionine 500.0 mg Vitamin A 3300.0 I.U. Vitamin D₃ 1100.0 I.C.U. Riboflavin 4.4 mg Vitamin E 2.2 I.U. Niacin 27.5 mg Panthothenic acid 8.8 mg Choline chloride 500.0 mg Folic acid 1.43 mg Menadione sodium bisulfate 1.1 mg Vitamin B₁₂ 11.0 mcg Ground yellow corn, fine to […]

Staphylococcus aureus = assay: Minimum inhibitory concentration by agar dilution (Table VI); format: cell-based; conditions: 7 strains tested
Streptococcus faecalis = assay: as above; format: cell-based; conditions: 1 strain tested
[6] = test system: In Vitro Rumen Fermentation; assay: Propionate enhancement activity during in vitro rumen fermentation; format: cell-based, steer; conditions: for A:P: acetate/propionate ratio
Description: The drugs are dissolved or suspended (sonified if necessary) in a 0.1% Tween 20-ethanol-water vehicle and 25-50 ul is added to the incubation. The reaction is terminated with 6N HCl and centrifuged at 20,000 x g. Alliquots of the superinatant are analyzed for volatile fatty acid (VFA) content by gas-liquid chromatography.

[7] = test system: Staphylococcus aureus Smith; assay: In vivo antibacterial activity in infected mice (Table III); conditions: S. aureus Smith, 30 minutes before infection

C/C=C\C=C\[C@@H]1O[C@](O)([C@H](CO[C@H]2C[C@@H](OC)[C@@H](O[C@@H]3C[C@@H](OC)[C@@H](O[C@H]4C[C@H](OC)[C@H](O)[C@H](C)O4)[C@H](C)O3)[C@@H](C)O2)C(=O)NC/C=C/C=C(\C)[C@@H](OC)[C@H](C)[C@H]2C[C@H](O)[C@H](/C=C/C=C/C=C/C(=O)O)O2)[C@H](OC(=O)Cc2ccccc2)[C@H](O)C1(C)C [LL-E19020 alpha]
ZONE SIZE [1]: 15 mm
Minimal Inhibitory Concentration (Pseudomonas aeruginosa): >256 µg/mL
Minimal Inhibitory Concentration (Clostridium perfringens): 16 µg/mL
Wg Gains And Feed Efficiency % Improvement Over Controls COMBINED ([2]; 12.5 PPM in diet): 3.8%
Wg Gains And Feed Efficiency % Improvement Over Controls FEMALES ([2]; 12.5 PPM in diet): 7.8* %
Wg Gains And Feed Efficiency % Improvement Over Controls MALES ([2]; 12.5 PPM in diet): 0%
Wg Gains And Feed Efficiency % Improvement Over Controls FEED/GAIN ([2]; 12.5 PPM in diet): 1.36*
Wg Gains And Feed Efficiency % Improvement Over Controls COMBINED ([2]; 25 PPM in diet): 5.5%
Wg Gains And Feed Efficiency % Improvement Over Controls FEMALES ([2]; 25 PPM in diet): 4.8%
Wg Gains And Feed Efficiency % Improvement Over Controls MALES ([2]; 25 PPM in diet): 5.9%
Wg Gains And Feed Efficiency % Improvement Over Controls FEED/GAIN ([2]; 25 PPM in diet): 1.34**
Wg Gains And Feed Efficiency % Improvement Over Controls COMBINED ([2]; 50 PPM in diet): 6.6* %
Wg Gains And Feed Efficiency % Improvement Over Controls FEMALES ([2]; 50 PPM in diet): 10.5** %
Wg Gains And Feed Efficiency % Improvement Over Controls MALES ([2]; 50 PPM in diet): 3.6%
Wg Gains And Feed Efficiency % Improvement Over Controls FEED/GAIN ([2]; 50 PPM in diet): 1.34**
Wg Gains And Feed Efficiency % Improvement Over Controls COMBINED ([2]; 100 PPM in diet): 2.9%
Wg Gains And Feed Efficiency % Improvement Over Controls FEMALES ([2]; 100 PPM in diet): 3.2%
Wg Gains And Feed Efficiency % Improvement Over Controls MALES ([2]; 100 PPM in diet): 2.9%
Wg Gains And Feed Efficiency % Improvement Over Controls FEED/GAIN ([2]; 100 PPM in diet): 1.34**
Wg Gains And Feed Efficiency % Improvement Over Controls COMBINED ([2]; 200 PPM in diet): 5.7%
Wg Gains And Feed Efficiency % Improvement Over Controls FEMALES ([2]; 200 PPM in diet): 7.1%
Wg Gains And Feed Efficiency % Improvement Over Controls MALES ([2]; 200 PPM in diet): 4.5%
Wg Gains And Feed Efficiency % Improvement Over Controls FEED/GAIN ([2]; 200 PPM in diet): 1.32**
Minimal Inhibitory Concentration (Escherichia coli): >256 µg/mL
MIC (Pasteurella haemolytica): 16 µg/mL (≈ 13 µM)
MIC [3]: > 256 µg/mL
Minimal Inhibitory Concentration (Enterococcus; strain CMC-83-72): >256 µg/mL
Minimal Inhibitory Concentration (Enterococcus; strain IO-83-28): >256 µg/mL
Minimal Inhibitory Concentration (Enterococcus; strain IO-83-40): >256 µg/mL
Minimal Inhibitory Concentration (Enterococcus; strain VGH-84-65): 256 µg/mL
Minimal Inhibitory Concentration (Enterococcus; strain VGH-84-68): >256 µg/mL
MIC [4]: 0.125 µg/mL (≈ 0.102 µM)
MIC (Streptococcus agalactiae): 2 to 8 µg/mL
MIC (Streptococcus uberis): 8 µg/mL (≈ 6.52 µM)
Weight Gains % Improvement over Controls 0-1 Wk ([5]; 50 ppm in the diet): 12.5** %
Weight Gains % Improvement over Controls 0-2 Wk ([5]; 50 ppm in the diet): 4.1* %
Weight Gains % Improvement over Controls 0-3 Wk ([5]; 50 ppm in the diet): 4.2* %
Feed/Gain 0-1 Wk ([5]; 50 ppm in the diet): 1.11*
Feed/Gain 0-2 Wk ([5]; 50 ppm in the diet): 1.30
Feed/Gain 0-3 Wk ([5]; 50 ppm in the diet): 1.38
Weight Gains % Improvement over Controls 0-1 Wk ([5]; 100 ppm in the diet): 8.9* %
Weight Gains % Improvement over Controls 0-2 Wk ([5]; 100 ppm in the diet): 6.3** %
Weight Gains % Improvement over Controls 0-3 Wk ([5]; 100 ppm in the diet): 6.1** %
Feed/Gain 0-1 Wk ([5]; 100 ppm in the diet): 1.12*
Feed/Gain 0-2 Wk ([5]; 100 ppm in the diet): 1.27
Feed/Gain 0-3 Wk ([5]; 100 ppm in the diet): 1.39
efficiency of feed utilization (statement in words) ([5]; over unmedicated controls): increased the efficiency of feed utilization
weight gains of chicks (statement in words) ([5]; over unmedicated controls): improved the weight gains of chicks
MIC (Staphylococcus aureus): ≧ 256 µg/ml
MIC (Streptococcus faecalis): 8 µg/mL (≈ 6.52 µM)
A:P ([6]; Table X, 0.008 PPM, control 2.65): 2.66
TOTAL VFA ([6]; Table X, 0.008 PPM, control 159.4): 161.2 mM
A:P ([6]; Table X, 0.031 PPM, control 2.65): 2.43
TOTAL VFA ([6]; Table X, 0.031 PPM, control 159.4): 158.4 mM
A:P ([6]; Table X, 0.125 PPM, control 2.65): 2.14
TOTAL VFA ([6]; Table X, 0.125 PPM, control 159.4): 159.2 mM
A:P ([6]; Table X, 0.500 PPM, control 2.65): 2.27
TOTAL VFA ([6]; Table X, 0.500 PPM, control 159.4): 146.9 mM
A:P ([6]; Table X, 2.000 PPM, control 2.65): 2.21
TOTAL VFA ([6]; Table X, 2.000 PPM, control 159.4): 150.5 mM
A:P ([6]; Table XI, 0.015 PPM, control 2.19): 2.05
TOTAL VFA ([6]; Table XI, 0.015 PPM, control 125.3): 125.1 mM
A:P ([6]; Table XI, 0.031 PPM, control 2.19): 1.96
TOTAL VFA ([6]; Table XI, 0.031 PPM, control 125.3): 126.5 mM
A:P ([6]; Table XI, 0.062 PPM, control 2.19): 1.90
TOTAL VFA ([6]; Table XI, 0.062 PPM, control 125.3): 126.3 mM
A:P ([6]; Table XI, 0.125 PPM, control 2.19): 1.92
TOTAL VFA ([6]; Table XI, 0.125 PPM, control 125.3): 121.9 mM
A:P ([6]; Table XI, 0.250 PPM, control 2.19): 1.85
TOTAL VFA ([6]; Table XI, 0.250 PPM, control 125.3): 121.1 mM
Survival Ratios 7 Days After Infection ([7]; single subcutaneous dose 4 mg/kg): 2/5
Survival Ratios 7 Days After Infection ([7]; single subcutaneous dose 16 mg/kg): 3/5
Survival Ratios 7 Days After Infection ([7]; single subcutaneous dose 64 mg/kg): 3/5
Survival Ratios 7 Days After Infection ([7]; single subcutaneous dose 256 mg/kg): 3/5
